Assay results reported in patent US20160143884A1, “USE OF TETRAHYDROINDAZOLYLBENZAMIDE AND TETRAHYDROINDOLYLBENZAMIDE DERIVATIVES FOR THE TREATMENT OF HUMAN IMMUNODEFICIENCY VIRUS (HIV) AND ACQUIRED IMMUNE DEFICIENCY SYNDROME (AIDS)” (Esanex, Inc., priority 2014, published 2016).

Key:
JLAT clones (A2; 9.2) = assay: HIV-1 reactivation and inhibition of reactivation in JLAT clones (GFP, flow cytometry); type: cell-based, human
Protocol: Two JLAT clones (A2; 9.2) were incubated for 24 hours with tumor necrosis factor alpha (TNFα), phorbol myristate 13-acetate (PMA), Compound 9 (9, various doses), and all combinations of these three compounds. JLAT cells make GFP when HIV is reactivated from latency.
J-Lat cells (JLAT 9.2, 5×10^5/mL) were cultured in Gibco RPMI-1640 media, supplemented with 10% (vol/vol) FCS and 5% (vol/vol) penicillin streptomycin at 37° C., 5% CO2 under sterile conditions. For HIV-1 reactivation experiments, 10^6 cells/mL were mixed with TPA (10 nM final, unless otherwise indicated) or TNFα (5 ng/mL final) and immediately 150 μL of cell mix was dispensed into 96-well plates. Compound 9 was added to the 96-well plates in serial dilutions. Cells were incubated for 24 h before analysis by flow cytometry.
JLAT (A2) cells were incubated with the following treatments: media (negative control), DMSO (SNX control), 1 ng/mL TNFα, 2 μM PMA, or these agonists+1, 0.1, 0.01, or 0.001 Compound 9 (left to right in the attached figure). 20 h post incubation, the cells were washed, fixed, and run on a flow cytometer. Media, DMSO, TNFα, and PMA were each run in quadruplicate; all other reactions were run in singlet. >10,000 events (cells) were counted for each treatment. Data are expressed as % GFP+cells (negative cells set by gating on media alone control).

[1] = system: Rev-dependent VLP production; assay: Virus like particles (VLP) production in 293T cells, Gag(p24) ELISA; type: cell-based; details: 293T cells, 1, 0.1 and 0.01
Source text: 293T Cells were transfected with a gag-pol-RRE construct. When Rev is present and/or functioning, Gag is produced, forms virus like particles (VLP), and VLP are secreted into the culture supernatant. VLP in the media are quantified using a quantitative Gag(p24) ELISA.

[2] = system: 2LTR non-integrated circular form of the HIV genome; assay: HIV integration in 2LTR assay (real-time PCR); type: cell-based, HIV-1
PBMCs = assay: MTS staining for PBMC viability to measure cytotoxicity; type: cell-based, human
Source text: (§1) Pooling (mixing) of mononuclear cells from more than one donor is used to minimize the variability observed between individual donors, which results from quantitative and qualitative differences in HIV infection and overall response to the PHA and IL-2 of primary lymphocyte populations. Each plate contains virus/cell control wells (cells plus virus), experimental wells (drug plus cells plus virus) and compound control wells (drug plus media without cells, necessary for MTS monitoring of cytotoxicity). […] Therefore, infected wells are used in the assessment of both antiviral activity and cytotoxicity. […] The PBMC cultures are maintained for seven days following infection at 37° C., 5% CO2. After this period, cell-free supernatant samples are collected for analysis of reverse transcriptase activity and/or p24 antigen content. Following removal of supernatant samples, compound cytotoxicity is measured by addition of MTS to the plates for determination of cell viability. Wells are also examined microscopically and any abnormalities are noted. MTS Staining for PBMC Viability to Measure Cytotoxicity Protocol: At assay termination, assay plates are stained with the soluble tetrazolium-based dye MTS (CellTiter 96 Reagent, Promega) to determine cell viability and quantify compound toxicity. The mitochondrial enzymes of metabolically active cells metabolize MTS to yield a soluble formazan product. This allows the rapid quantitative analysis of cell viability and compound cytotoxicity. […] At termination of the assay, 20 uL of MTS reagent is added per well. The microtiter plates are then incubated 4-6 hrs at 37° C. The incubation intervals were chosen based on empirically determined times for optimal dye reduction. Adhesive plate sealers are used in place of the lids, the sealed plate is inverted several times to mix the soluble formazan product and the plate is read spectrophotometrically at 490/650 nm with a Molecular Devices Vmax or SpectraMaxPlus plate reader.

[3] = as above; type: cell-based, human; details: human, PBMCs
Source text: as §1

SIVmac251 virus = assay: SIV inhibition in NHP PBMC, p27 antigen capture assay; type: cell-based; details: 0.0005 to 50 μM
Protocol: Non-human primate (NHP) cells were activated in IL-2 growth medium (GM) containing PHA-P at a concentration of 10 μg/ml for 24 hrs. The next day cells were washed and re-suspended in fresh IL-2 GM. Compound 9 was serially diluted at concentrations ranging from 0.0005 to 50 μM in a 96 well u-bottom plate containing IL-2 GM. Activated cells were then added to the wells of the plate. SIVmac251 virus, diluted 1:25 in IL-2 GM, was subsequently added to the appropriate wells containing the compounds of interest and the cells except for controls. This virus represents the same virus preparation utilized for infection of the animals. The plate was then incubated overnight and, after extensive washing the next day, the plate was then placed back in the incubator at 37° C., 5% CO2.
On day 4-5, of the assay, supernatants were harvested and a SIV p27 antigen capture assay was used to detect SIV p27 in the supernatant. […] The percentage of inhibition in each experiment is reported in FIGS. 3b and 3c for test 1 and 2, respectively.

With CC1(C)CC(=O)c2c(C(F)(F)F)nn(-c3ccc(C(N)=O)c(N[C@H]4CC[C@H](O)CC4)c3)c2C1 [Compound 9, 4-(6,6-Dimethyl-4-oxo-3-trifluoromethyl-4,5,6,7-tetrahydro-indazol-1-yl)-2-(trans-4-hydroxy-cyclohexylamino)-benzamide] the “Increase in GFP positive cells (HIV reactivation)” value (JLAT clones (A2; 9.2); JLAT (A2) model) was “about 2 fold”, the “Inhibition of TNFα or PMA (phorbol ester) induced HIV-1 reactivation” value (JLAT clones (A2; 9.2); JLAT A2 and JLAT 9.2 cells) was “does not inhibit” and the “Inhibition of Rev-dependent VLP production” value [1] was “does not appear to robustly inhibit”. For the same molecule, the “Expression level of 2LTR” value ([2]; 10 nM, both time points) was “expression levels similar to HIV Only”, the “Expression level of 2LTR” value ([2]; 100 nM) was “highest expression levels of 2LTR over all other samples” and the “Expression level of 2LTR” value ([2]; 1 μM) was “highest expression levels of 2LTR over all other samples”. For the same molecule, the “TC 90% (90% cytotoxicity)” value (PBMCs) was >2000 nM, the “TC 95% (95% cytotoxicity)” value (PBMCs) was >2000 nM and the CC50 at 7 days [3] was 30 nM. The “Amount of p27 in the supernatant of the cultures” value (SIVmac251 virus) was “dose-dependent reduction”.
